Test results published in patent US12486269B2 (Aconcagua Bio, Inc., priority 2024, dated 2025).

Experiments:
[1] = biological target: T1, human calcitonin receptor (CTR) (Homo sapiens, UniProt P30988); experiment: Calcitonin Receptor (CTR) cAMP Assay; assay type: cell-based; conditions: COS7-human CTR Clone #2 stable cell line, cAMP dynamic 2 kit, 30 min; read-out: Calcitonin Receptor cAMP Stimulation Activity: EC50
T1 construct: expressed in transfected cells; host or cells: COS-7 (COS7-human CTR Clone #2)
T1 sequence (P30988 25-474): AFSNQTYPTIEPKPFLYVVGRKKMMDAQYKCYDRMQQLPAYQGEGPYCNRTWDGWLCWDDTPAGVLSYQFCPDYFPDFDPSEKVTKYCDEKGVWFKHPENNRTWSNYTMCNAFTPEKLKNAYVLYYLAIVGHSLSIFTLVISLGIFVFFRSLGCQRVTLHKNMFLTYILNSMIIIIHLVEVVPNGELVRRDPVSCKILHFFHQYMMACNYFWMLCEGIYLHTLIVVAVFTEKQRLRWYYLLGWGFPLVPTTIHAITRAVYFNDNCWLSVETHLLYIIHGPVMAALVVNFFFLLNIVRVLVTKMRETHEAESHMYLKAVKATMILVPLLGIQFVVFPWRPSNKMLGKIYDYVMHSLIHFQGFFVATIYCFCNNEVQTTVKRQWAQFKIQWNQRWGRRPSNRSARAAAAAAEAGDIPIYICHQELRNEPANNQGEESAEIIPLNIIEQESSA
Summary of the method: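 cAMP accumulation was measured by HTRF cAMP dynamic 2 read at 665/615 nm, 1 h at room temperature, with results scaled between vehicle and positive control. Before detection, COS7-human CTR stable cells were stimulated 30 min at 37 °C with compound (4-fold dilutions) in IBMX-containing HBSS/HEPES/casein buffer.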

[2] = biological target: T2, COS-7/AMY3 (human calcitonin receptor (CTR) and RAMP3) (Homo sapiens, UniProt O60896+P30988); experiment: Amylin Receptor cAMP Assay II; assay type: cell-based; conditions: values marked **: Amylin Receptor cAMP Assay II; COS-7/AMY3 cells, cAMP dynamic 2 kit, 30 min; read-out: Amylin Receptor cAMP Stimulation Activity: EC50
T2 construct: expressed in transfected cells; host or cells: COS-7
T2 sequence (O60896 24-148, one chain of several): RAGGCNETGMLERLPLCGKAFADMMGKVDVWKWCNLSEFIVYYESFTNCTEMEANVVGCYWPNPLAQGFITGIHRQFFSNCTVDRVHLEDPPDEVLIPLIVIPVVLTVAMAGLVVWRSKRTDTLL
Summary of the method: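 Agonist-induced cAMP was quantified by HTRF ratio at 665/615 nm and expressed as % of the window from vehicle to MAX control. Stimulation lasted 30 min at 37 °C in HBSS/20 mM HEPES/0.5 mM IBMX/0.1% casein, using stable human CTR+RAMP3 (AMY3) COS-7 cells at 2000 per well.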

Structure (SMILES) | EC50 [1] [µM] | EC50 [2] [µM]
CC(c1ccc(F)c(F)c1)n1ccc2cc(-c3c4c(nc(CCC5CCOCC5)c3-c3cc(=O)[nH]o3)[C@@H]3CCCN3C4=O)ccc21 (stereo partly drawn) [Compound 202, 5-((9aS)-4-(1-(1-(3,4-difluorophenyl)ethyl)-1H-indol-5-yl)-5-oxo-2-(2-(tetrahydro-2H-pyran-4-yl)ethyl)-7,8,9,9a-tetrahydro-5H-pyrido[2,3-a]pyrrolizin-3-yl)isoxazol-3(2H)-one] | 0.0662 | 1.75
N#Cc1ccc(Cn2c(=O)oc3cc(-c4c5c(nc(CCC6CCOCC6)c4-c4cc(=O)[nH]o4)[C@@H]4CCCN4C5=O)ccc32)cc1F [Compound 203, 4-[[6-[(9aS)-5-oxo-3-(3-oxoisoxazol-5-yl)-2-(2-tetrahydropyran-4-ylethyl)-1,4,7,8,9,9a-hexahydropyrido[2,3-a]pyrrolizin-4-yl]-2-oxo-1,3-benzoxazol-3-yl]methyl]-2-fluoro-benzonitrile] | 0.00469 | 0.529
CC(c1ccc(C#N)c(F)c1)n1ccc2cc(-c3c4c(nc(CCC5CCOCC5)c3-c3cc(=O)[nH]o3)[C@@H]3CCCN3C4=O)ccc21 (stereo partly drawn) [Compound 204, 2-fluoro-4-(1-(5-((S)-5-oxo-3-(3-oxo-2,3-dihydroisoxazol-5-yl)-2-(2-(tetrahydro-2H-pyran-4-yl)ethyl)-7,8,9,9a-tetrahydro-5H-pyrido[2,3-a]pyrrolizin-4-yl)-1H-indol-1-yl)ethyl)benzonitrile] | 0.00506 | 0.266
COc1cccc2c1CC[C@H]2Nc1nccc2cc(-c3c4c(nc(CCC5CCOCC5)c3-c3cc(=O)[nH]o3)[C@@H]3CCCN3C4=O)sc12 [Compound 205, 5-((S)-4-(7-(((R)-4-methoxy-2,3-dihydro-1H-inden-1-yl)amino)thieno[2,3-c]pyridin-2-yl)-5-oxo-2-(2-(tetrahydro-2H-pyran-4-yl)ethyl)-7,8,9,9a-tetrahydro-5H-pyrido[2,3-a]pyrrolizin-3-yl)isoxazol-3(2H)-one] | 0.0057 | 0.342
O=C1c2c(nc(CCC3CCOCC3)c(-c3cc(=O)[nH]o3)c2-c2cc3ccnc(NCc4ccc(F)c(F)c4)c3s2)[C@@H]2CCCN12 [Compound 206, (S)-5-(4-(7-((3,4-difluorobenzyl)amino)thieno[2,3-c]pyridin-2-yl)-5-oxo-2-(2-(tetrahydro-2H-pyran-4-yl)ethyl)-7,8,9,9a-tetrahydro-5H-pyrido[2,3-a]pyrrolizin-3-yl)isoxazol-3(2H)-one] | 0.0261 | 1.59
COc1cccc2c1CC[C@H]2Nc1nc(C)cc2cc(-c3c4c(nc(CCc5ccc(F)cc5)c3-c3n[nH]c(=O)o3)[C@@H]3CCCN3C4=O)sc12 [Compound 207, 5-((S)-2-(4-fluorophenethyl)-4-(7-(((R)-4-methoxy-2,3-dihydro-1H-inden-1-yl)amino)-5-methylthieno[2,3-c]pyridin-2-yl)-5-oxo-7,8,9,9a-tetrahydro-5H-pyrido[2,3-a]pyrrolizin-3-yl)-1,3,4-oxadiazol-2(3H)-one] | 0.000309 | 0.0113
O=C1c2c(nc(CCc3ccc(F)cc3)c(-c3n[nH]c(=O)o3)c2-c2ccc3c(c2)oc(=O)n3Cc2ncc(Cl)cc2F)[C@@H]2CCCN12 [Compound 208, (S)-3-((5-chloro-3-fluoropyridin-2-yl)methyl)-6-(2-(4-fluorophenethyl)-5-oxo-3-(5-oxo-4,5-dihydro-1,3,4-oxadiazol-2-yl)-7,8,9,9a-tetrahydro-5H-pyrido[2,3-a]pyrrolizin-4-yl)benzo[d]oxazol-2(3H)-one] | 0.000331 | 0.0744
CC(c1ccc(C#N)c(F)c1)n1c(=O)oc2cc(-c3c4c(nc(CCc5ccc(F)cc5)c3-c3n[nH]c(=O)o3)[C@@H]3CCCN3C4=O)ccc21 (stereo partly drawn) [Compound 209, 2-fluoro-4-(1-(6-((S)-2-(4-fluorophenethyl)-5-oxo-3-(5-oxo-4,5-dihydro-1,3,4-oxadiazol-2-yl)-7,8,9,9a-tetrahydro-5H-pyrido[2,3-a]pyrrolizin-4-yl)-2-oxobenzo[d]oxazol-3(2H)-yl)ethyl)benzonitrile] | 0.000154 | 0.0172

The next lines start with the values.

EC50 [1] [µM] | EC50 [2] [µM] | Structure (SMILES)
0.023 | 0.467 | O=C1c2c(nc(CCc3ccc(F)cc3)c(-c3n[nH]c(=O)o3)c2-c2cnc3c(ccn3Cc3ncc(F)cc3F)c2)[C@@H]2CCCN12 [Compound 210, (S)-5-(4-(1-((3,5-difluoropyridin-2-yl)methyl)-1H-pyrrolo[2,3-b]pyridin-5-yl)-2-(4-fluorophenethyl)-5-oxo-7,8,9,9a-tetrahydro-5H-pyrido[2,3-a]pyrrolizin-3-yl)-1,3,4-oxadiazol-2(3H)-one]
0.00385 | 0.434 | O=C1c2c(nc(CCc3ccc(F)cc3)c(-c3n[nH]c(=O)o3)c2-c2cnc3c(ccn3Cc3ncc(Cl)cc3F)c2)[C@@H]2CCCN12 [Compound 211, (S)-5-(4-(1-((5-chloro-3-fluoropyridin-2-yl)methyl)-1H-pyrrolo[2,3-b]pyridin-5-yl)-2-(4-fluorophenethyl)-5-oxo-7,8,9,9a-tetrahydro-5H-pyrido[2,3-a]pyrrolizin-3-yl)-1,3,4-oxadiazol-2(3H)-one]
0.526 | 11.7 | COc1cccc2c1CC[C@H]2Nc1nccc2cc(-c3c(-c4n[nH]c(=O)o4)c(CCc4ccc(F)cc4)nc4c3S(=O)(=O)CC4(C)C(C)C)sc12 (stereo partly drawn) [Compound 212, 5-(5-(4-fluorophenethyl)-3-isopropyl-7-(7-(((R)-4-methoxy-2,3-dihydro-1H-inden-1-yl)amino)thieno[2,3-c]pyridin-2-yl)-3-methyl-1,1-dioxido-2,3-dihydrothieno[3,2-b]pyridin-6-yl)-1,3,4-oxadiazol-2(3H)-one]
0.000786 | 0.0531 | N#Cc1ccc(Cn2c(=O)oc3cc(-c4c(-c5n[nH]c(=O)o5)c(CCc5ccc(F)cc5)nc5c4S(=O)(=O)N4CCC[C@@H]54)ccc32)nc1 [Compound 213, (S)-6-((6-(2-(4-fluorophenethyl)-5,5-dioxido-3-(5-oxo-4,5-dihydro-1,3,4-oxadiazol-2-yl)-7,8,9,9a-tetrahydropyrrolo[1′,2′:2,3]isothiazolo[4,5-b]pyridin-4-yl)-2-oxobenzo[d]oxazol-3(2H)-yl)methyl)nicotinonitrile]
0.00192 | 0.129 | N#Cc1ccc(Cn2ccc3cc(-c4c5c(nc(CCc6ccc(F)cc6)c4-c4n[nH]c(=O)o4)C4CCCN4C5=O)cnc32)cc1F (stereo not shown) [Compound 214, 2-fluoro-4-((5-(2-(4-fluorophenethyl)-5-oxo-3-(5-oxo-4,5-dihydro-1,3,4-oxadiazol-2-yl)-7,8,9,9a-tetrahydro-5H-pyrido[2,3-a]pyrrolizin-4-yl)-1H-pyrrolo[2,3-b]pyridin-1-yl)methyl)benzonitrile]
0.000406 | 0.00723 | COc1cccc2c1CC[C@H]2Nc1nc(C(F)(F)F)cc2cc(-c3c4c(nc(CCc5ccc(F)cc5)c3-c3n[nH]c(=O)o3)[C@@H]3CCCN3C4=O)sc12 [Compound 215, 5-((S)-2-(4-fluorophenethyl)-4-(7-(((R)-4-methoxy-2,3-dihydro-1H-inden-1-yl)amino)-5-(trifluoromethyl)thieno[2,3-c]pyridin-2-yl)-5-oxo-7,8,9,9a-tetrahydro-5H-pyrido[2,3-a]pyrrolizin-3-yl)-1,3,4-oxadiazol-2(3H)-one]
